≈ marks a conversion by molar mass, not a printed value.
Legend:
[1] = (§1) Drug level in human plasma treated with [14C]4-[(1R,3aS,5aR,5bR,7aR,11aS,11bR,13aR,13bR)-3a-[2-(1,1-dioxo-1,4-thiazinan-4-yl)ethylamino]-1-isopropenyl-5a,5b,8,8,11a-pentamethyl-1,2,3,4,5,6,7,7a,11,11b,12,13,13a,13b-tetradecahydrocyclopenta[a]chrysen-9-yl]benzoic acid at 5 mg/kg, po administered via gavage by LC-MS/MS analysis; format: ADME, organism-based; details: in vivo
[2] = as §1, with “Sprague-Dawley rat” for “human”, “acid” for “acid at 5 mg/kg, po administered via gavage”; format: ADME, cell-free
[3] = as §1, with “beagle dog” for “human”; format: ADME, organism-based, Canis lupus familiaris; details: in vivo
[4] = as §1, with “cynomolgus monkey” for “human”; format: ADME, organism-based, Macaca fascicularis; details: in vivo
[5] = Drug metabolism in human plasma assessed as mono-oxidation product formation at 5 mg/kg, po administered via gavage by LC-MS/MS analysis; format: ADME, organism-based; details: in vivo
[6] = Drug metabolism in Sprague-Dawley rat plasma assessed as mono-oxidation product formation at 5 mg/kg, po administered via gavage by LC-MS/MS analysis; format: ADME, organism-based; details: in vivo
[7] = Drug metabolism in beagle dog plasma assessed as mono-oxidation product formation at 5 mg/kg, po administered via gavage by LC-MS/MS analysis; format: ADME, organism-based, Canis lupus familiaris; details: in vivo
[8] = Drug metabolism in cynomolgus monkey plasma assessed as mono-oxidation product formation at 5 mg/kg, po administered via gavage by LC-MS/MS analysis; format: ADME, organism-based, Macaca fascicularis; details: in vivo
[9] = (§2) Drug metabolism in human plasma assessed as 4-((1R,3aS,5aR,5bR,7aR,11aS,11bR,13aR,13bR)-3a-amino-5a,5b,8,8,11a-pentamethyl-1-(prop-1-en-2-yl)-2,3,3a,4,5,5a,5b,6,7,7a,8,11,11a,11b,12,13,13a,13b-octadecahydro-1H-cyclopenta[a]chrysen-9-yl)benzoic acid formation at 5 mg/kg, po administered via gavage by LC-MS/MS analysis; format: ADME, organism-based; details: in vivo
[10] = as §2, with “Sprague-Dawley rat” for “human”; format: ADME, organism-based; details: in vivo
[11] = as §2, with “beagle dog” for “human”; format: ADME, organism-based, Canis lupus familiaris; details: in vivo
[12] = as §2, with “cynomolgus monkey” for “human”; format: ADME, organism-based, Macaca fascicularis; details: in vivo
[13] = (§3) Drug metabolism in human plasma assessed as (2S,3S,4S,5R,6S)-6-[4-[(1R,3aS,5aR,5bR,7aR,11aS,11bR,13aR,13bR)-3a-[2-(1,1-dioxo-1,4-thiazinan-4-yl)ethylamino]-1-isopropenyl-5a,5b,8,8,11a-pentamethyl-1,2,3,4,5,6,7,7a,11,11b,12,13,13a,13b-tetradecahydrocyclopenta[a]chrysen-9-yl]benzoyl]oxy-3,4,5-trihydroxy-tetrahydropyran-2-carboxylic acid formation at 5 mg/kg, po administered via gavage by LC-MS/MS analysis; format: ADME, organism-based; details: in vivo
[14] = as §3, with “Sprague-Dawley rat” for “human”; format: ADME, organism-based; details: in vivo
[15] = as §3, with “beagle dog” for “human”; format: ADME, organism-based, Canis lupus familiaris; details: in vivo
[16] = as §3, with “cynomolgus monkey” for “human”; format: ADME, organism-based, Macaca fascicularis; details: in vivo
[17] = tested on: Human immunodeficiency virus 1; experiment: Ratio of EC50 for antiviral activity against wild type HIV1 infected in human MT2 cells after 4 to 5 days in presence of 10% FBS plus […] by dual luciferase reporter gene assay to EC50 for antiviral activity against wild type HIV1 infected in human MT2 cells after 4 to 5 days by dual luciferase reporter gene assay; format: functional
in vitro [18] = details: human, MT2 cells
Description: Cytotoxicity against human MT2 cells assessed as reduction in cell viability

in vitro [19] = details: rat, liver microsomes
Description: Half life in rat liver microsomes at 0.5 uM after 1 hr in presence of NADPH by LC-MS/MS analysis

in vitro [20] = details: human, liver microsomes
Description: Half life in human liver microsomes at 0.5 uM after 1 hr in presence of NADPH by LC-MS/MS analysis

[21] = tested on: Human immunodeficiency virus 1; experiment: microbe, parasite or virus in culture; details: Human immunodeficiency virus 1, MT2
Description: Antiviral activity against wild type HIV1 infected in human MT2 cells after 4 to 5 days by dual luciferase reporter gene assay

[22] = tested on: Human immunodeficiency virus 1; experiment: microbe, parasite or virus in culture; details: Human immunodeficiency virus 1, MT2; remark: listed apart in the source
Description: Antiviral activity against wild type HIV1 infected in human MT2 cells after 4 to 5 days in presence of 10% FBS and 40% human serum albumin by dual luciferase reporter gene assay

[23] = Solubility of compound in fasted state simulated intestinal fluid at pH 6.5; format: physicochemical
[24] = Solubility of compound in fed state simulated intestinal fluid at pH 5; format: physicochemical
in vivo = details: Sprague-Dawley, rat, po, 5 mg/kg
physchem = details: aqueous
Description: Aqueous solubility of the compound

[25] = tested on: Human immunodeficiency virus 1; experiment: microbe, parasite or virus in culture; details: Human immunodeficiency virus 1, MT2; remark: listed apart in the source
[26] = tested on: Human immunodeficiency virus 1; experiment: microbe, parasite or virus in culture; details: Human immunodeficiency virus 1, MT2; remark: listed apart in the source
Description: Antiviral activity against HIV1 expressing gag delta V370 mutant infected in human MT2 cells after 4 to 5 days by dual luciferase reporter gene assay

[27] = Dissociation constant, pKa of the compound; format: physicochemical

Structure (SMILES)	CC50 (in vitro [18]) [µM]	half-life at 1 h, 0.5 µM (in vitro [19]) [h]	half-life at 1 h, 0.5 µM (in vitro [20]) [h]	EC50 [21] [µM]	EC50 [22] [µM]	AUC(0-t) at 24 h (in vivo) [µM·h]	EC50 [25] [µM]	EC50 [26] [µM]	pKa [27]	further results
C=C(C)[C@@H]1CC[C@]2(NCCN3CCS(=O)(=O)CC3)CC[C@]3(C)[C@H](CC[C@@H]4[C@@]5(C)CC=C(c6ccc(C(=O)OC)cc6)C(C)(C)[C@@H]5CC[C@]43C)[C@@H]12	–	–	–	–	–	–	–	–	–	Drug uptake [1]: Active; Drug uptake [2]: Active; Drug uptake [3]: Active; Drug uptake [4]: Active
C=C(C)[C@@H]1CC[C@]2(NCCN3CCS(=O)(=O)CC3)CC[C@]3(C)[C@H](CC[C@@H]4[C@@]5(C)CC=C(c6ccc([14C](=O)O)cc6)C(C)(C)[C@@H]5CC[C@]43C)[C@@H]12	–	–	–	–	–	–	–	–	–	Drug metabolism [5]: Metabolite_Detected; Drug metabolism [6]: Metabolite_Detected; Drug metabolism [7]: Metabolite_Detected; Drug metabolism [8]: Metabolite_Detected; Drug metabolism [9]: Metabolite_Detected; Drug metabolism [10]: Metabolite_Detected; Drug metabolism [11]: Metabolite_Detected; Drug metabolism [12]: Metabolite_Detected; Drug metabolism [13]: Metabolite_Detected; Drug metabolism [14]: Metabolite_Detected; Drug metabolism [15]: Metabolite_Detected; Drug metabolism [16]: Metabolite_Detected
C=C(C)[C@@H]1CC[C@]2(N)CC[C@]3(C)[C@H](CC[C@@H]4[C@@]5(C)CC=C(c6ccc(C(=O)O)cc6)C(C)(C)[C@@H]5CC[C@]43C)[C@@H]12	–	–	–	–	–	–	–	–	–	Drug uptake [1]: Active; Drug uptake [2]: Active; Drug uptake [3]: Active; Drug uptake [4]: Active
C=C(C)[C@@H]1CC[C@]2(NCCN3CCCS(=O)(=O)CC3)CC[C@]3(C)[C@H](CC[C@@H]4[C@@]5(C)CC=C(c6ccc(C(=O)O)cc6)C(C)(C)[C@@H]5CC[C@]43C)[C@@H]12	4.9	> 2	> 2	0.0036	0.0351	–	–	–	–	Ratio EC50 [17]: 9.7
C=C(C)[C@@H]1CC[C@]2(NCCN3CCS(=O)(=O)CC3)CC[C@]3(C)[C@H](CC[C@@H]4[C@@]5(C)CC=C(c6ccc(C(=O)O)c(F)c6)C(C)(C)[C@@H]5CC[C@]43C)[C@@H]12	7.8	> 2	> 2	0.0028	0.0128	24.3	0.0034	0.0097	–	solubility [23]: 0.14 mg/mL (≈ 197 µM); solubility [24]: 0.33 mg/mL (≈ 465 µM); solubility (physchem): < 0.001 mg/mL
C=C(C)[C@@H]1CC[C@]2(NCCN3C[C@@H]4C[C@H]3CS4(=O)=O)CC[C@]3(C)[C@H](CC[C@@H]4[C@@]5(C)CC=C(c6ccc(C(=O)O)cc6)C(C)(C)[C@@H]5CC[C@]43C)[C@@H]12	7.34	> 2	> 2	0.0019	0.0111	27	0.0028	0.0077	–	solubility (physchem): < 0.001 mg/mL
C=C(C)[C@@H]1CC[C@]2(NCCN3CCC(F)(F)CC3)CC[C@]3(C)[C@H](CC[C@@H]4[C@@]5(C)CC=C(c6ccc(C(=O)O)cc6)C(C)(C)[C@@H]5CC[C@]43C)[C@@H]12	> 10	> 2	> 2	0.0051	–	–	0.0141	0.0675	8.5	–
C=C(C)[C@@H]1CC[C@]2(NCCN3CCOCC3)CC[C@]3(C)[C@H](CC[C@@H]4[C@@]5(C)CC=C(c6ccc(C(=O)O)cc6)C(C)(C)[C@@H]5CC[C@]43C)[C@@H]12	> 10	> 2	> 2	0.0083	–	–	0.0132	0.0474	8.2	–
C=C(C)[C@@H]1CC[C@]2(CNCCCN3CCS(=O)(=O)CC3)CC[C@]3(C)[C@H](CC[C@@H]4[C@@]5(C)CC=C(c6ccc(C(=O)O)cc6)C(C)(C)[C@@H]5CC[C@]43C)[C@@H]12	–	> 2	> 2	–	–	3.15	–	–	5.4	–
